One may read the IC50 as the midpoint of a concentration-inhibition curve. A word on the EC50: it is the midpoint of the concentration-response curve.

Test [1] can be described thus: Agonist activity at FPR2 in human HL-60 cells assessed as reduction in chemoattractant induced chemotaxis by luminescence cell viability assay.
Test [2] in a line: Agonist activity at FPR2 in mouse peritoneal macrophages assessed as stimulation of phagocytosis preincubated for 15 mins followed by FITC labeled zymosan addition and measured after 45 mins by Trypan blue staining based fluorescence assay.

Structures are written as SMILES.

In the case of `COc1cc(F)c([C@@H]2CNC(=O)[C@H]2NC(=O)Nc2ccccc2)c(F)c1`, the IC50 in test [1] came to 57 nM. In addition, the concentration giving a half-maximal response (EC50) in test [2] was under 1 nM.
